The source of these data is PubChem BioAssay AID328 (DTP/NCI, 2004).

Where “and” joins values, the source holds several entries; their conditions need not be identical. Equal entries are not always repeated. Toxic doses and inconclusive results are not listed.

This assay relates to BDF1 mice, P388 leukemia ip, median survival T/C. Description: NCI In Vivo Anticancer Drug Screen. Data for tumor model P388 Leukemia (intraperitoneal) in B6D2F1 (BDF1) mice. The note with it: endpoint: median survival time, higher = longer survival. The method, boiled down:
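Antitumour effect was judged in vivo: survival in drug-treated mice, normalised to that of vehicle-dosed controls, gives the reported T/C.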

Where [1] appears, read: dose: 100.0 mg/kg/injection, schedule: Q01DX009 (ip), vehicle: saline.
Where [2] appears, read: dose: 200.0 mg/kg/injection, schedule: Q01DX009 (ip), vehicle: saline.
Where [3] appears, read: dose: 400.0 mg/kg/injection, schedule: Q01DX009 (ip), vehicle: saline.
Where [4] appears, read: dose: 10.0 mg/kg/injection, schedule: Q01DX009 (ip), vehicle: saline with Tween-80.
Where [5] appears, read: dose: 100.0 mg/kg/injection, schedule: Q04DX003 (ip), vehicle: saline with Tween-80.
Setting [6] is: dose: 200.0 mg/kg/injection, schedule: Q04DX003 (ip), vehicle: saline with Tween-80.
Setting [7] is: dose: 100.0 mg/kg/injection, schedule: Q01DX009 (ip), vehicle: saline with Tween-80.
Setting [8] is: dose: 200.0 mg/kg/injection, schedule: Q01DX009 (ip), vehicle: saline with Tween-80.
Where [9] appears, read: dose: 400.0 mg/kg/injection, schedule: Q01DX009 (ip), vehicle: saline with Tween-80.
Setting [10] is: dose: 25.0 mg/kg/injection, schedule: Q01DX009 (ip), vehicle: saline.
Where [11] appears, read: dose: 400.0 mg/kg/injection, schedule: Q04DX003 (ip), vehicle: saline with Tween-80.

On to `CCOC1=CCCCC1`, for which the T/C by setting is: under setting [1], 113 % of control; under setting [2], 115 % of control and 122 % of control; under setting [3], 118 % of control.

Consider `COc1cc2cc3c4cc(OC)c(OC)cc4cc[n+]3cc2cc1OC`, for which the T/C runs as follows: (dose: 5.0 mg/kg/injection, schedule: Q01DX009 (ip), vehicle: saline with Tween-80) 109 % of control; under setting [4], 118 % of control; (dose: 40.0 mg/kg/injection, schedule: Q01DX009 (ip), vehicle: saline with Tween-80) 159 % of control; (dose: 40.0 mg/kg/injection, schedule: Q04DX003 (ip), vehicle: saline) 163 % of control; (dose: 80.0 mg/kg/injection, schedule: Q04DX003 (ip), vehicle: saline) 174 % of control; (dose: 160.0 mg/kg/injection, schedule: Q01DX009 (ip), vehicle: saline with Tween-80) 154 % of control. In addition, the T/C reads like this: (dose: 160.0 mg/kg/injection, schedule: Q04DX003 (ip), vehicle: saline with Tween-80) 154 % of control; (dose: 160.0 mg/kg/injection, schedule: Q04DX003 (ip), vehicle: saline) 166 % of control; (dose: 320.0 mg/kg/injection, schedule: Q04DX003 (ip), vehicle: saline with Tween-80) 122 % of control; (dose: 320.0 mg/kg/injection, schedule: Q04DX003 (ip), vehicle: saline) 120 % of control.

Take `CC(C(O)c1cccs1)C(O)(C(F)(F)F)C(F)(F)F` (centres undefined): the T/C under setting [5] was 90 % of control and the T/C under setting [6] is 109 % of control.

`Clc1ncnc2nc[nH]c12`: the T/C reads like this: (dose: 7.5 mg/kg/injection, schedule: Q01DX010 (ip), vehicle: saline) 92 % of control and 118 % of control; (dose: 15.0 mg/kg/injection, schedule: Q01DX010 (ip), vehicle: saline) 92 % of control and 122 % of control; (dose: 30.0 mg/kg/injection, schedule: Q01DX010 (ip), vehicle: saline) 100 % of control; (dose: 60.0 mg/kg/injection, schedule: Q01DX010 (ip), vehicle: saline) 100 % of control.

In the case of `O=C(c1ccccc1)C(Br)c1ccc([N+](=O)[O-])cc1` (centres undefined), the T/C is, setting by setting: (dose: 100.0 mg/kg/injection, schedule: Q04DX003 (ip), vehicle: Klucel (hydroxypropylcellulose) (HPC)) 100 % of control; (dose: 200.0 mg/kg/injection, schedule: Q04DX003 (ip), vehicle: Klucel (hydroxypropylcellulose) (HPC)) 90 % of control; (dose: 400.0 mg/kg/injection, schedule: Q04DX003 (ip), vehicle: Klucel (hydroxypropylcellulose) (HPC)) 100 % of control.

As for `CC(=O)C1=C(O)C2C3c4c[nH]c5cccc(c45)CC3C(C)(C)N2C1=O` (centres undefined), the T/C reads like this: (dose: 0.5 mg/kg/injection, schedule: Q01DX010 (ip), vehicle: saline) 100 % of control; (dose: 1.0 mg/kg/injection, schedule: Q01DX010 (ip), vehicle: saline) 100 % of control; (dose: 2.0 mg/kg/injection, schedule: Q01DX010 (ip), vehicle: saline) 100 % of control; (dose: 4.0 mg/kg/injection, schedule: Q01DX010 (ip), vehicle: saline) 110 % of control.

For `Nc1[nH]c(=S)[nH]c(=O)c1NC(=O)C1CC1`, the T/C is 100 % of control under setting [7]; 104 % of control (dose: 100.0 mg/kg/injection, schedule: Q04DX003 (ip), vehicle: saline); 100 % of control under setting [8]; 104 % of control (dose: 200.0 mg/kg/injection, schedule: Q04DX003 (ip), vehicle: saline); 100 % of control under setting [9]; 100 % of control (dose: 400.0 mg/kg/injection, schedule: Q04DX003 (ip), vehicle: saline).

With `C[n+]1cccc(NC(=O)c2ccc(NC(=O)c3ccc(C(=O)Nc4ccc(NC(=N)N)cc4)cc3)cc2)c1`, the T/C was 150 % of control (dose: 3.3 mg/kg/injection, schedule: Q04DX003 (ip), vehicle: saline); 159 % of control (dose: 5.0 mg/kg/injection, schedule: Q04DX003 (ip), vehicle: saline); 180 % of control (dose: 5.56 mg/kg/injection, schedule: Q04DX003 (ip), vehicle: saline); 195 % of control (dose: 7.5 mg/kg/injection, schedule: Q04DX003 (ip), vehicle: saline); 235 % of control (dose: 8.33 mg/kg/injection, schedule: Q04DX003 (ip), vehicle: saline); 235 % of control (dose: 12.5 mg/kg/injection, schedule: Q04DX003 (ip), vehicle: saline). Moreover, the T/C (dose: 18.7 mg/kg/injection, schedule: Q04DX003 (ip), vehicle: saline) was 155 % of control.

Consider `O=S1(=O)C=C(c2ccccc2)C(c2ccccc2)=C1`, for which the T/C runs as follows: (dose: 22.0 mg/kg/injection, schedule: Q04DX003 (ip), vehicle: saline) 104 % of control; (dose: 33.0 mg/kg/injection, schedule: Q04DX003 (ip), vehicle: saline) 113 % of control; (dose: 50.0 mg/kg/injection, schedule: Q04DX003 (ip), vehicle: saline sonified) 118 % of control; (dose: 75.0 mg/kg/injection, schedule: Q04DX003 (ip), vehicle: saline sonified) 150 % of control; (dose: 75.0 mg/kg/injection, schedule: Q04DX003 (ip), vehicle: saline) 122 % of control.

In the case of `N.N.N.NC(Cc1cnc[nH]1)C(=O)[O-].O=[N+]([O-])[O-].[Co+3]` (centres undefined), the T/C runs as follows: (dose: 2.0 mg/kg/injection, schedule: Q01DX009 (ip), vehicle: saline) 89 % of control; (dose: 4.0 mg/kg/injection, schedule: Q01DX009 (ip), vehicle: saline) 95 % of control and 110 % of control and 113 % of control; (dose: 8.0 mg/kg/injection, schedule: Q01DX009 (ip), vehicle: saline) 100 % of control and 110 % of control; (dose: 20.0 mg/kg/injection, schedule: Q01DX009 (ip), vehicle: saline) 120 % of control; under setting [10], 90 % of control.

For the compound `O=c1[nH]cnc2c1ncn2C1OC(CO)C(O)C1O` (centres undefined), the T/C is, setting by setting: under setting [1], 99 % of control; under setting [2], 100 % of control; under setting [3], 103 % of control.

Regarding `CC(C)=CCNc1ncnc2nc[nH]c12`, the T/C is 104 % of control under setting [4]; 104 % of control (dose: 20.0 mg/kg/injection, schedule: Q01DX009 (ip), vehicle: saline with Tween-80); 95 % of control (dose: 20.0 mg/kg/injection, schedule: Q04DX003 (ip), vehicle: saline with Tween-80); 95 % of control (dose: 40.0 mg/kg/injection, schedule: Q04DX003 (ip), vehicle: saline with Tween-80); 100 % of control (dose: 80.0 mg/kg/injection, schedule: Q04DX003 (ip), vehicle: saline with Tween-80).

Consider `Nc1ccc2cc3ccc(N)cc3nc2c1`, for which the T/C under setting [10] is 86 % of control.

With `FC(F)(F)c1nc2nc(Cl)c(Cl)nc2n1CCCN1CCOCC1`, the T/C is 105 % of control under setting [5], 115 % of control under setting [6] and 110 % of control under setting [11].

On to `O=C(c1cccs1)C1Cc2ccccc2C1=O` (centres undefined), for which the T/C is 100 % of control under setting [7], 116 % of control under setting [8] and 100 % of control under setting [9].

Consider `O=C1N=C2C=CC=CN2C(=O)C1Cc1ccccc1` (centres undefined), for which the T/C was 96 % of control under setting [5], 100 % of control under setting [6] and 104 % of control under setting [11].

For the compound `CCOC(CNC(=O)NC1CCCCC1)OCC`, the T/C reads like this: under setting [5], 90 % of control; under setting [6], 90 % of control; under setting [11], 90 % of control.

Turning to `Nc1nccnc1C(=O)O`, the T/C is, setting by setting: (dose: 12.5 mg/kg/injection, schedule: Q01DX009 (ip), vehicle: water) 102 % of control; (dose: 25.0 mg/kg/injection, schedule: Q01DX009 (ip), vehicle: water) 109 % of control; (dose: 50.0 mg/kg/injection, schedule: Q01DX009 (ip), vehicle: water) 117 % of control; (dose: 100.0 mg/kg/injection, schedule: Q01DX009 (ip), vehicle: water) 105 % of control; (dose: 200.0 mg/kg/injection, schedule: Q04DX003 (ip), vehicle: water) 101 % of control; (dose: 300.0 mg/kg/injection, schedule: Q04DX003 (ip), vehicle: water) 110 % of control. For the same compound, the T/C is 109 % of control (dose: 400.0 mg/kg/injection, schedule: Q01DX009 (ip), vehicle: water); 105 % of control (dose: 400.0 mg/kg/injection, schedule: Q04DX003 (ip), vehicle: water); 100 % of control (dose: 600.0 mg/kg/injection, schedule: Q04DX003 (ip), vehicle: water).
